We go through 20 molecules from patent publication US8105636B2, “Compositions and methods for treating inflammation and inflammation-related disorders by Plectranthus amboinicus extracts” (Academia Sinica, priority 2007, dated 2012).

For orientation: IC50 means the concentration at which inhibition is half-maximal.

Read-outs that look alike come from different tables or passages of the source.

The target of one assay is T1, AP-1 (Homo sapiens, UniProt P01100+P05412).
T1 construct: (Histidine)6; Strep-tag; made in house; host or cells: bacterial cells harboring pFos-Jun
Kind of assay: AP-1 inhibition assay (ELISA), AP-1 binding to AP-1 recognition sequence. Here is the method:
To test the effect of the compounds of the present disclosure on AP-1 binding activity to AP-1 recognition sequence, ELISA experiments were performed.
According to implementations, binding assays were developed to identify inhibitors that block the AP-1 DNA binding activities. Traditional methods call for the preparation of nuclear extracts from TPA-stimulated cells, or require separate purification of Fos and Jun followed with in vitro dimerization to form a functional AP-1 complexes. A bicistronic expression vector that can drive the expression of two genes in one plasmid was thus designed as shown in FIG. 7. In this system, a promoter would directly drive the expression of the first gene, which is connected to the second gene via a ribosome-binding site in order to confer the expression of the second genes. Any pair of genes that form heterodimer in the cells for their physiological functions can be potentially expressed as complexes in the cells using this system.
According to implementations, the expression system of FIG. 7 was used to co-express AP-1 complexes. Accordingly, Fos (as gene 1) was tagged with a (Histidine)6 tag and Jun (as Gene 2) was tagged with Strep-tag as illustrated in FIG. 8A. […] Cross-linking experiments further confirmed the Fos-Jun complexes are dimers (FIG. 8C).
The crude extracts containing or the purified proteins were used for ELISA-based and fluorescence anisotropy-based binding analysis. Labeled oligonucleotides containing one or more copies of AP-1 consensus binding sites were used in the binding assays. Biotin-labeled oligonucleotides were used to coat streptavidin-plates in ELISA-binding assays. Rhodamine or fluorescein or other fluorophores-labeled oligonucleotides were used for fluorescence anisotropy analysis.

For assay [1], the system named is AP-1 transcription factors. The assay can be described thus: ELISA-based AP-1/DNA binding assay with nuclear extracts from TPA-activated HeLa or K562 cells. Particulars: fractions of PA crude extract from preparative C18 HPLC; FIG. 4. Here is the method:
According to implementations of experimental data shown in FIG. 5, oligonucleotide containing AP-1 binding sites were incubated nuclear extracts from TPA-stimulated K562 (K562) or HeLa (HeLa) cells. The antibodies to AP-1 complexes were added followed with horseradish peroxidase-labeled secondary antibody for ELISA-based analysis. AP-1 binding activity in the nuclear extract from TPA-stimulated cells was defined as 100% and the AP-1 binding activity of buffer only was defined as 0%.
According to implementations of experimental data shown in FIG. 6, AP-1 complexes can be formed by different proteins such as C-Jun, JunB, JunD, c-Fos, Fos-B, Fra-1 or Fra-2.
Due to the involvement of AP-1 activity in inflammatory signaling, the effects of the PA crude extract on AP-1/DNA binding activity was examined. […] The nuclear extract prepared from TPA-activated HeLa or K562 cells were used as AP-1 protein sources. After incubating with the oligonucleotides containing AP-1 binding sites, the AP-1/DNA complexes were detected with HRP-conjugated anti-c-Fos antibodies.
The PA crude extract was further fractionated with preparative HPLC using C18 column. […] This fraction was further purified by employing another C18 column using the solvent gradient from 2% acetonitrile to 90% acetonitrile containing 0.1% trifluoreoacetic acid. […]
A general note: ELISA stands for enzyme-linked immunosorbent assay.

The subject of assay [2] is Human umbilical vein endothelial (HUVEC) cells. The assay can be described thus: LPS-induced cytokine/chemokine expression in HUVEC cells (Luminex). Particulars: HUVEC cells incubated with LPS, PA crude extract 1 mg/ml. Type of assay: cell-based. Also noted: unit not given here. The method, then: Human umbilical vein endothelial (HUVEC) cells were incubated with LPS in the absence or presence of 1 mg/ml crude extract of PA. The cytokine expression profile was determined using Luminex.

The mark [3] stands for this setting: ELISA, AP-1 binding activity to AP-1 recognition sequence, read-out: IC50 (AP-1 inhibition assay).

T1 sequence (P01100 whole entry): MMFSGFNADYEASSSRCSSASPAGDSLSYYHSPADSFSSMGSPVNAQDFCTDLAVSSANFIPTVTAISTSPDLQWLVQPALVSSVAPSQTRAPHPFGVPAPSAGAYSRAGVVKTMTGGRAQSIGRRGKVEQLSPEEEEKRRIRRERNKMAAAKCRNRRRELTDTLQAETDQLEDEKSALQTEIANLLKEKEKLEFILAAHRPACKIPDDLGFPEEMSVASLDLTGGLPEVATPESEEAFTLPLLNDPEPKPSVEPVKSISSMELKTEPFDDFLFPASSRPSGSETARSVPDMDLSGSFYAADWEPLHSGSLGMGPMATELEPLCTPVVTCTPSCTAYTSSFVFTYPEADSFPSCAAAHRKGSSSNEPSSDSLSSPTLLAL
T1 sequence (P05412 whole entry): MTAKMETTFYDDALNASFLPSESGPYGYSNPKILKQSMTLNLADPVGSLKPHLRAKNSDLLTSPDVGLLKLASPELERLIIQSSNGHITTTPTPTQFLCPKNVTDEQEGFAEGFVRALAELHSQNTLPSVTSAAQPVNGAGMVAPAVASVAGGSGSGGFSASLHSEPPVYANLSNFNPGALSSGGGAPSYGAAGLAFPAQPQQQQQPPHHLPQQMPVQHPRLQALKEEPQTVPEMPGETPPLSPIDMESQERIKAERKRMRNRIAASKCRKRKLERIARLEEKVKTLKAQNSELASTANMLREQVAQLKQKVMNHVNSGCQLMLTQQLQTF

As to `O=C(O)/C(=C\c1ccc(O)c(O)c1)C(c1ccc(O)c(O)c1)C(O)C(=O)O` (single isomer, unassigned) [Mena 987 (1)], the half-inhibitory concentration (IC50) on AP-1 (setting [3]) was 4.3 ± 2.6 µM.
Turning to `O=C(/C=C/c1ccc(O)c(O)c1)NC[C@@H](O)C(=O)Oc1cccc(O)c1O` [CHM9102], the “Inhibitory effects against AP-1 binding of HPLC fractions and isolated components (in words)” value in assay [1] is on record as “inhibitory effects”.
Take `COC(=O)C(Cc1ccc(O)c(O)c1)NC(=O)/C=C/c1ccc(O)c(O)c1` (stereo not drawn) [Compound 5]: on AP-1 (setting [3]), the IC50 was determined as 39 ± 31 µM.
Same read-out and setting: as for `CCOC(=O)[C@H](Cc1ccc(O)c(O)c1)NC(=O)/C=C/c1ccc(O)c(O)c1` [Compound 6], the figure is 32.5 ± 24 µM; as for `O=C(/C=C/c1ccc(O)c(O)c1)N[C@@H](Cc1ccc(O)c(O)c1)C(=O)O` [Compound 7], 9.2 ± 3.2 µM.
The same measure, in the same setting: the value for `O=C(/C=C/c1ccc(O)c(O)c1)NCCc1ccc(O)c(O)c1` [Compound 8] was 12.9 ± 5.9 µM.
At AP-1, `CCOP(=O)(OCC)C(Cc1ccc(O)c(O)c1)NC(=O)/C=C/c1ccc(O)c(O)c1` (stereo not drawn) [Compound 9] gave an IC50 of 26.2 ± 18.9 µM.
Turning to `CCOC(=O)C(Cc1ccc(O)c(O)c1)OC(=O)/C=C/c1ccc(O)c(O)c1` (stereo not drawn) [Compound 10], the IC50 at AP-1 (setting [3]) turned out to be 5.6 ± 4.2 µM.
Turning to `O=C(/C=C/c1cc(O)c(O)cc1[N+](=O)[O-])OC(Cc1cc(O)c(O)cc1[N+](=O)[O-])C(=O)O` (stereo not drawn) [Compound 11], the IC50 at AP-1 (setting [3]) was 21.3 ± 24 µM.
As to `COC(=O)C(Cc1ccc(O)c(O)c1)NC(=O)[C@H](Cc1ccc(O)c(O)c1)OC(=O)/C=C/c1ccc(O)c(O)c1` (stereo partly drawn) [Compound 13], at AP-1 (setting [3]), the IC50 is 0.8 ± 0.8 µM.
Consider `CCOC(=O)C(Cc1ccc(O)c(O)c1)NC(=O)[C@H](Cc1ccc(O)c(O)c1)OC(=O)/C=C/c1ccc(O)c(O)c1` (stereo partly drawn) [Compound 14], for which the IC50 at AP-1 (setting [3]) amounted to 1.2 ± 0.8 µM.
Still for that read-out and setting: the value for `O=C(O)CC(NC(=O)C(Cc1ccc(O)c(O)c1)OC(=O)C=Cc1ccc(O)c(O)c1)C(=O)O` (stereo not drawn) [Compound 15] was 34.7 ± 21.3 µM; that for `COC(=O)C(Cc1ccc(O)c(O)c1)NC(=O)C(Cc1cc(O)c(O)cc1[N+](=O)[O-])OC(=O)C=Cc1ccc(O)c(O)c1` (stereo not drawn) [Compound 16] was 21.3 ± 24 µM.
Same read-out and setting: the value for `COC(=O)C(Cc1c[nH]c2ccccc12)NC(=O)C(Cc1ccc(O)c(O)c1)OC(=O)C=Cc1ccc(O)c(O)c1` (stereo not drawn) [Compound 17] was 43.4 ± 28.2 µM; that for `O=C(C=Cc1ccc(O)c(O)c1)OC(Cc1ccc(O)c(O)c1)C(=O)NC(Cc1c[nH]c2ccccc12)C(=O)O` (stereo not drawn) [Compound 18] was 31.9 ± 20 µM; that for `COC(=O)C(Cc1ccc(O)c(O)c1)NC(=O)C(Cc1ccc(O)c(O)c1)NC(=O)C=Cc1ccc(O)c(O)c1` (stereo not drawn) [Compound 19] was 8 ± 4.7 µM.
As for `O=C(C=Cc1ccc(O)c(O)c1)NC(Cc1ccc(O)c(O)c1)C(=O)NC(Cc1ccc(O)c(O)c1)C(=O)O` (stereo not drawn) [Compound 20], the IC50 on AP-1 (setting [3]) was found to be 3.5 ± 2 µM.
For `COc1ccc2c(c1)c(CC(=O)O)c(C)n2C(=O)c1ccc(Cl)cc1` [Indomethacin], in assay [2], the Eotaxin expression is given as 29.1, the GM-CSF expression was 220, the IFNg expression came out at 2.41 and the IL-1a expression was found to be 13.8. In assay [2], this molecule yielded an IL-1b expression of 11.7, an IL-2 expression of 10.1, an IL-3 expression of 8.82 and an IL-4 expression of 11.8. Also, in assay [2], the IL-5 expression is given as 1.24, the IL-6 expression came to 62300, the IL-7 expression was 51.5 and the IL-8 expression worked out at 8030. In assay [2], the IL-10 expression is 1.12, the “IL-12 (p40) expression” value is on record as 16.4, the “IL-12 (p70) expression” value is listed as 6.43 and the IL-13 expression turned out to be 11.1. In assay [2], the IL-15 expression is 13.4, the IP-10 expression is reported as 24.5, the MCP-1 expression came out at 41800 and the MIP-la expression is 7.57. In assay [2], this molecule returned an RANTES expression of 5.48 and a TNFa expression of 8.14.
As for `O=C(OC(Cc1ccc(O)c(O)c1)C(=O)O)C1=Cc2ccc(O)c(O)c2C(C(=O)OC(Cc2ccc(O)c(O)c2)C(=O)O)C1c1ccc(O)c(O)c1` (stereo not drawn) [Mena 9102 (3)], the IC50 at AP-1 (setting [3]) turned out to be 1.4 ± 0.9 µM.
As for `O=C(/C=C/c1ccc(O)c(O)c1)O[C@H](Cc1ccc(O)c(O)c1)C(=O)O` [rosmarinic acid (4), rosmarinic acid], in assay [1], the “Inhibitory effects against AP-1 binding of HPLC fractions and isolated components (in words)” value is on record as “inhibitory effects”. Also, the IC50 on AP-1 (setting [3]) is 10 ± 4.1 µM.
